For experiment [1], the target named is T1, recombinant human ALK5 (TGF-βR1) protein (Homo sapiens, UniProt P36897).
T1 construct: purchased Life Technologies PR9075A
T1 sequence (P36897 34-503): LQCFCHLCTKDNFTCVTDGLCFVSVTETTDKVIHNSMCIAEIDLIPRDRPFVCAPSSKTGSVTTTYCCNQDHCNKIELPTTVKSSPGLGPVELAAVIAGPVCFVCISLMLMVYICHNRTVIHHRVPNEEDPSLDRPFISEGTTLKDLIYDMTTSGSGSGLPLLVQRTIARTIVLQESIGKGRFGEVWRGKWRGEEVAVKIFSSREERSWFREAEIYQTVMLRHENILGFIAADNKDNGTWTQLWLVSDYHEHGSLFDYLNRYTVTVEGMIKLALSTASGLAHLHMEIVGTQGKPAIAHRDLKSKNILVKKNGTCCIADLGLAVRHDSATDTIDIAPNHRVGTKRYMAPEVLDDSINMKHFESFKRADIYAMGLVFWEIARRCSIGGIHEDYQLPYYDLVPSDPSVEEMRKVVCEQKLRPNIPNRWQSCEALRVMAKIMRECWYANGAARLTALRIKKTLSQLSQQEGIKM
In words: Biochemical ALK5 (TGF-βR1) assay to measure pKi (LANCE Ultra ULight kinase assay). The conditions noted are these: apparent pKi, converted from pIC50 by Cheng-Prusoff. Put shortly: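 Dose-response series of each compound were preincubated with the kinase for 60 minutes at room temperature. Phosphorylation proceeded for 60 minutes at 37 °C after ATP addition, was quenched with EDTA, and was detected with a europium anti-phospho-Thr1342 antibody by TR-FRET; pKi was calculated from pIC50.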
In general terms: In TR-FRET formats the signal depends on donor and acceptor labels being close together.

Experiment [2] deals with TGF-β-stimulated SMAD3 phosphorylation in BEAS-2B cells. In words: Cellular ALK5 potency assay, inhibition of TGF-β stimulated pSMAD3 formation in BEAS-2B cells. In kind it is cell-based. The following applies: Homo sapiens, pSMAD3, TGF-β 10 ng/mL, read-out: BEAS2B pIC50 (converted). Put shortly:
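BEAS-2B cells, HBSS/25 mM HEPES/1% BSA buffer; cpd 1 h, 37 °C; TGF-β 10 ng/mL final, 30 min; lysis, AlphaLISA pSMAD3 read next day. pIC50 vs stimulated no-compound baseline.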

`Cc1cccc(-c2nccc(Nc3ccnc(Nc4ccc(NC(=O)C5CCN(CCN(C)C)CC5)cc4)n3)n2)n1` [Compound 269, 1-[2-(dimethylamino)ethyl]-N-[4-[[4-[[2-(6-methyl-2-pyridyl)pyrimidin-4-yl]amino]pyrimidin-2-yl]amino]phenyl]piperidine-4-carboxamide]: in experiment [1], the Ki is 0.0398 to 0.316 nM. Moreover, the IC50 in experiment [2] is 200 to 1260 nM.
As for `Cc1cccc(-c2nccc(Nc3ccnc(Nc4ccc(S(=O)(=O)N5CCN(C)CC5)cc4)n3)n2)n1` [Compound 270, N2-[4-(4-methylpiperazin-1-yl)sulfonylphenyl]-N4-[2-(6-methyl-2-pyridyl)pyrimidin-4-yl]pyrimidine-2,4-diamine], in experiment [1], the Ki was 0.0398 to 0.316 nM. Moreover, in experiment [2], the IC50 was 25.1 to 158 nM.
The like results for `CNC(=O)[C@@H]1CN(Cc2ccc(Nc3nccc(Nc4ccnc(-c5cccc(C)n5)n4)n3)cc2)CCN1` [Compound 271, (2S)-N-methyl-4-[[4-[[4-[[2-(6-methyl-2-pyridyl)pyrimidin-4-yl]amino]pyrimidin-2-yl]amino]phenyl]methyl] piperazine-2-carboxamide] were, in that order, 0.0398 to 0.316 nM and 25.1 to 158 nM.
Take `Cc1cccc(-c2nccc(Nc3ccnc(Nc4ccc(NS(C)(=O)=O)cc4)n3)n2)n1` [Compound 272, N-[4-[[4-[[2-(6-methyl-2-pyridyl)pyrimidin-4-yl]amino]pyrimidin-2-yl]amino]phenyl] methanesulfonamide]: the Ki in experiment [1] is 0.0398 to 0.316 nM. Also, the IC50 in experiment [2] was 25.1 to 158 nM.
On to `CNCCNS(=O)(=O)c1cccc(Nc2nccc(Nc3ccnc(-c4cccc(C)n4)n3)n2)c1` [Compound 273, N-[2-(methylamino)ethyl]-3-[[4-[[2-(6-methyl-2-pyridyl)pyrimidin-4-yl]amino]pyrimidin-2-yl]amino]benzenesulfonamide], for which the Ki in experiment [1] is 0.0398 to 0.316 nM. In addition, the IC50 in experiment [2] was 25.1 to 158 nM.
In the same order, the values of `Cc1cccc(-c2nccc(Nc3ccnc(Nc4ccc(CN5CCC(C(=O)OCC6CNC6)CC5)cc4)n3)n2)n1` [Compound 275, azetidin-3-ylmethyl 1-[[4-[[4-[[2-(6-methyl-2-pyridyl)pyrimidin-4-yl]amino]pyrimidin-2-yl]amino]phenyl]methyl] piperidine-4-carboxylate] are 0.0398 to 0.316 nM and 25.1 to 158 nM.
Turning to `Cc1cccc(-c2nccc(Nc3ccnc(Nc4ccc(NC(=O)N5CCN[C@@H](CO)C5)cc4)n3)n2)n1` [Compound 276, (3R)-3-(hydroxymethyl)-N-[4-[[4-[[2-(6-methyl-2-pyridyl)pyrimidin-4-yl]amino]pyrimidin-2-yl]amino]phenyl]piperazine-1-carboxamide], the Ki in experiment [1] is 0.0398 to 0.316 nM. Moreover, the IC50 in experiment [2] is 25.1 to 158 nM.
The like results for `Cc1cccc(-c2nccc(Nc3ccnc(Nc4ccc5c(c4)CC4(CCNC4)C5)n3)n2)n1` (stereo not shown) [Compound 277, N2-(1,3-dihydrospiro[indene-2,3′-pyrrolidin]-5-yl)-N4-(2-(6-methylpyridin-2-yl)pyrimidin-4-yl)pyrimidine-2,4-diamine] were, in that order, 0.0398 to 0.316 nM and 25.1 to 158 nM.
For the compound `Cc1cccc(-c2nccc(Nc3ccnc(Nc4ccc(CN5C[C@H]6C[C@@H]5CN6)cc4)n3)n2)n1` [Compound 279, N2-[4-[[(1R,4R)-2,5-diazabicyclo[2.2.1]heptan-2-yl]methyl]phenyl]-N4-[2-(6-methyl-2-pyridyl)pyrimidin-4-yl]pyrimidine-2,4-diamine], the Ki in experiment [1] was 0.0398 to 0.316 nM. Further, the IC50 in experiment [2] was 25.1 to 158 nM.
`Cc1cccc(-c2nccc(Nc3ccnc(Nc4ccc(CC5CNC5)cc4)n3)n2)n1` [Compound 280, N2-[4-(azetidin-3-ylmethyl)phenyl]-N4-[2-(6-methyl-2-pyridyl)pyrimidin-4-yl]pyrimidine-2,4-diamine]: the Ki in experiment [1] was 0.0398 to 0.316 nM. Moreover, the IC50 in experiment [2] was 25.1 to 158 nM.
In the same order, the values of `Cc1cccc(-c2nccc(Nc3ccnc(Nc4ccc(N5CCOCC5)cn4)n3)n2)n1` [Compound 281, N4-[2-(6-methyl-2-pyridyl)pyrimidin-4-yl]-N2-(5-morpholino-2-pyridyl)pyrimidine-2,4-diamine] are 0.398 to 3.16 nM and 25.1 to 158 nM.
In the same order, the values of `Cc1cccc(-c2nccc(Nc3ccnc(Nc4cccc(NC(=O)C5CCN(C6CCN(C)CC6)CC5)c4)n3)n2)n1` [Compound 282, 1-(1-methyl-4-piperidyl)-N-[3-[[4-[[2-(6-methyl-2-pyridyl)pyrimidin-4-yl]amino]pyrimidin-2-yl]amino]phenyl]piperidine-4-carboxamide] are 0.0398 to 0.316 nM and 25.1 to 158 nM.
Turning to `Cc1cccc(-c2nccc(Nc3ccnc(Nc4ccc(CN5CCN[C@H](C(=O)O)C5)cc4)n3)n2)n1` [Compound 283, (2S)-4-[[4-[[4-[[2-(6-methyl-2-pyridyl)pyrimidin-4-yl]amino]pyrimidin-2-yl]amino]phenyl]methyl] piperazine-2-carboxylic acid], the Ki in experiment [1] is 0.0398 to 0.316 nM. Besides, the IC50 in experiment [2] was 200 to 1260 nM.
For `Cc1cccc(-c2nccc(Nc3ccnc(Nc4ccc5[nH]ncc5c4)n3)n2)n1` [Compound 284, N2-(1H-indazol-5-yl)-N4-[2-(6-methyl-2-pyridyl)pyrimidin-4-yl]pyrimidine-2,4-diamine], in experiment [1], the Ki was 0.398 to 3.16 nM. In experiment [2], the IC50 was ≤ 20 nM.
The like results for `Cc1cccc(-c2nccc(Nc3ccnc(Nc4ccc(O)cc4)n3)n2)n1` [Compound 285, 4-[[4-[[2-(6-methyl-2-pyridyl)pyrimidin-4-yl]amino]pyrimidin-2-yl]amino]phenol] were, in that order, 0.398 to 3.16 nM and 25.1 to 158 nM.
In the same order, the values of `Cc1cccc(-c2nccc(Nc3ccnc(Nc4cnn(CCCN)c4)n3)n2)n1` [Compound 286, N2-[1-(3-aminopropyl)pyrazol-4-yl]-N4-[2-(6-methyl-2-pyridyl)pyrimidin-4-yl]pyrimidine-2,4-diamine] are 0.0398 to 0.316 nM and 200 to 1260 nM.
In the case of `Cc1cccc(-c2nccc(Nc3ccnc(Nc4nc(CN5CCNCC5)cs4)n3)n2)n1` [Compound 287, N4-(2-(6-methylpyridin-2-yl)pyrimidin-4-yl)-N2-(4-(piperazin-1-ylmethyl)thiazol-2-yl)pyrimidine-2,4-diamine], the Ki in experiment [1] was 0.398 to 3.16 nM. Also, the IC50 in experiment [2] is 25.1 to 158 nM.
The like results for `Cc1cccc(-c2nccc(Nc3ccnc(Nc4cccc(NC(=O)C5CCNCC5)c4)n3)n2)n1` [Compound 288, N-[3-[[4-[[2-(6-methyl-2-pyridyl)pyrimidin-4-yl]amino]pyrimidin-2-yl]amino]phenyl]piperidine-4-carboxamide] were, in that order, 0.0398 to 0.316 nM and ≤ 20 nM.
In the same order, the values of `Cc1cccc(-c2nccc(Nc3ccnc(Nc4ccc(N5CCC(N)C5)cc4)n3)n2)n1` (stereo not shown) [Compound 289, N2-[4-(3-aminopyrrolidin-1-yl)phenyl]-N4-[2-(6-methyl-2-pyridyl)pyrimidin-4-yl]pyrimidine-2,4-diamine] are 0.0398 to 0.316 nM and 25.1 to 158 nM.
The like results for `Cc1cccc(-c2nccc(Nc3ccnc(Nc4ccc(C(=O)N5CCNCC5)cc4)n3)n2)n1` [Compound 290, [4-[[4-[[2-(6-methyl-2-pyridyl)pyrimidin-4-yl]amino]pyrimidin-2-yl]amino]phenyl]-piperazin-1-yl-methanone] were, in that order, 0.0398 to 0.316 nM and 25.1 to 158 nM.

The values are drawn from US20230399312A1, “SUBSTITUTED PYRIMIDINES AND METHODS OF USE” (THERAVANCE BIOPHARMA R&D IP, LLC, priority 2020, published 2023).
